Columns and labels:
Type in all cases: in vivo, Oryza sativa
Oslrk2 = assay: RT-PCR of Oslrks in treated 2 week-old seedlings; details: treated vs control
Method: (§1) RT-PCRs were carried out on RNA samples isolated from 2 week-old seedlings treated with various sugar (FIG. 13), hormone (FIG. 14), and abiotic stresses (FIG. 15) using primers designated to either 3′ or 5′ Untranslated Regions (UTRs) of the 15 Oslrks found in Table 2. For each Oslrk two lanes in the gel are found, the first lane is the control and the second one treatment samples.
(§2) Table 3 provides a summary of all the above referenced data on the Oslrks, showing the RT-PCR results of various treatments, including sugar, hormone and abiotic stress and northern blot results on various tissues of rice plant grown in normal conditions, and the ESTs, or cDNAs availability in the database. In the table, “I” represents induced expression and “R” represents repressed expression.

Oslrk6 = assay: RT-PCR of Oslrks in treated 2 week-old seedlings; details: treated vs control
Method: as §1, §2

Oslrk4 = assay: RT-PCR of Oslrks in treated 2 week-old seedlings; details: treated vs control
Method: as §1, §2

Oslrk8 = assay: RT-PCR of Oslrks in treated 2 week-old seedlings; details: treated vs control
Method: as §1, §2

Oslrk5 = assay: RT-PCR of Oslrks in treated 2 week-old seedlings; details: treated vs control
Method: as §1, §2

Oslrk14 = assay: RT-PCR of Oslrks in treated 2 week-old seedlings; details: treated vs control
Method: as §1, §2

Oslrk12 = assay: RT-PCR of Oslrks in treated 2 week-old seedlings; details: treated vs control
Method: as §1, §2

Oslrk10 = assay: RT-PCR of Oslrks in treated 2 week-old seedlings; details: treated vs control
Method: as §1, §2

Oslrk1 = assay: RT-PCR of Oslrks in treated 2 week-old seedlings; details: treated vs control
Method: as §1, §2

Oslrk11 = assay: RT-PCR of Oslrks in treated 2 week-old seedlings; details: treated vs control
Method: as §1, §2

Oslrk1 gene [1] = assay: Northern-blot of Oslrk1 transcript in WT seedlings treated with hormones and SA; details: 100 uM, 24 hours, WT seedlings
From the text: Differential Regulation of Oslrk1 Gene Expression by Hormones. Receptor-like kinases were postulated to be involved in signal transduction events as they perceive a signal via a ligand-binding extracellular domain and transmit it through the serine/threonine kinase domain into the cytosol (Shiu and Bleecker, 2001). In order to know possible factors influencing the Oslrk1 gene regulation, we analyzed promoter of the Oslrk1 (1.5 kb) for the presence of cis-acting elements using the program PlantCARE (Lescot et al., 2002). Three TGAGC motifs observed in MeJA inducible genes were found in promoter of the Oslrk1 at the positions −186, −657 and −1190. Apart from these, three GA3 inducible motifs (P-box-CCTTxt) −101, −206 and −740 bp upstream of the Oslrk1 ORF were located. In addition, five salicylic acid inducible motifs (TCA-elementcAGAAa/ga) at the positions of −321, −601, −604, −855 and −1135 were detected. The presence of MeJA, GA and SA responsive cis-elements in the Oslrk1 promoter indicated possible regulatory roles of these factors. The promoter analysis led us to study the effect of different hormones and compounds on the Oslrk1 transcription. The WT seeds were germinated for […] then seedlings were transferred to the medium containing one of the following chemicals: […], MeJA, GA3 or ABA at concentration 100 uM and SA (5 mM) for 24 hours (Materials and Methods). The total RNA isolated from the untreated and treated seedlings were used in Northern-blot hybridization using 3′ UTR of the Oslrk1 gene as a probe. The treatment with GA3 and SA repressed the Oslrk1 gene expression (FIG. 8A) by 2.5 and 3.3 times respectively. […] In order to confirm the level of induction of the Oslrk1 gene by MeJA over time, in another series of experiments, a time course was performed after hormone treatment. Seven day old seedlings were sprayed with 100 uM of MeJA solution and they were harvested in 1, 2, 4, 6, 8, and 12 hours.
RNA Isolation and Northern-blot Analysis. RNA was isolated from different organs of rice plant at different developmental stages (roots of 10-14 days old seedlings and 2 months old plants, 10-14 days old seedlings, young and mature leaves, panicles at the flowering stage and calli) using a RNeasy Plant mini kit (Qiagen,). The RNA (10 ug) was fractionated on a 1.2% denaturating formaldehyde agarose gel and transferred onto a Hybond-N^+ membrane (Amersham). The bolts were hybridized with dogoxigenin (DIG)-labeled probes in DIG Easy Hyb solution (Roche) at 50° C. After hybridization, membranes were washed twice with 2×SSC and 0.1% SDS for 15 min, then twice with 0.5×SSC and 0.1% SDS for 15 min at 68° C. Detection was carried out according to manufacturer using DIG Wash and Block Buffer set and chemiluminescent substrate CDP Star™ (Roche). DIG-labelled probe corresponded to 3′UTR and lectin domain of Oslrk1 was used. For the control of RNA quantity, DIG-probe corresponding to rice Actin1 gene was synthesized using the following primers: […]
(§3) The RT-PCRs and Northern blots were repeated at least thrice and similar results were obtained. The quantification of the intensity of the hybridization signals was performed using Quantity ONE 4.5.0 software in Gel doc XR documentation system (Bio-Rad Laboratories, Inc., USA). The level of actual expression was calculated as a ratio of intensity of specific signal (Oslrk1 3′UTR probe) to the intensity of signal of positive control (rice Act1).
Treatment of WT Seedlings with Hormones and Sugars. Two week old WT seedlings were transferred to MS medium containing 100 μM of different hormones, such as Indole 3-Acetic Acid (IAA), Abscisic acid (ABA), Methyl Jasmonate (MeJA), or Gibbrellic Acid (GA3) and 5 mM of Salicylic Acid (SA), and were grown for 24 hours under normal day/light conditions. Total RNA was extracted from root of the seedlings and whole seedlings. […]

Oslrk1 gene [2] = assay: Northern-blot of Oslrk1 transcript in WT seedlings treated with sugars; details: sugars 175 mM, 48 hours, Mannitol as osmotic control
Method: Lectins are known as carbohydrate-binding proteins that specifically recognize diverse sugar structures (Vijayan and Chandra, 1999). […] Five different sugars: glucose (Glu), sucrose (Suc), fructose (Fm), Gal and Man were used for this study along with Mannitol as an osmotic control (Methods). Northern-blot hybridizations were carried out on the total RNA isolated from treated seedlings.
RNA Isolation and Northern-blot Analysis. RNA was isolated from different organs of rice plant at different developmental stages (roots of 10-14 days old seedlings and 2 months old plants, 10-14 days old seedlings, young and mature leaves, panicles at the flowering stage and calli) using a RNeasy Plant mini kit (Qiagen,). […] For the control of RNA quantity, DIG-probe corresponding to rice Actin1 gene was synthesized using the following primers: […]
as §3, with “Act1). […]” for “Act1).”

WT seeds and seedlings = assay: Germination and growth of WT seeds in galactose/mannose containing media
From the text: (§4) The altered expression of the Oslrk1 by different sugars described above led us to study the response of the mutant to these monosaccharides and sucrose. The WT and the mutant seeds were germinated and grown in Gal, Man, Glu, Fm along with Suc at different concentrations (ranging from 0.1% to 1%) and Suc alone containing medium as a control. The following parameters were taken into account during observation: the shoot length, the number and the length of adventitious roots and the germination rate. […] Out of these three sugars tested, Man was selected as an example as its inhibitory effect was similar in seeds and seedlings of WT and mutant as shown in FIGS. 10A and B. The seed germination was severely affected by Man.
(§5) At 1.0% of the Gal, the shoot length decreased by half in the mutant, whereas only by 15% in the WT seedlings. […] Apart from this, the germination rate of the WT seeds dropped to 85% whereas in the mutant it dropped to 30%.
(§6) Germination of WT and mutant seeds in galactose/mannose containing media. WT and mutant seeds were germinated separately on MS medium containing 0.8% agar and 1% sucrose. In addition, D(+)galactose/D(+/−)mannose was added in different concentrations (0.1, 0.2, 0.5, and 1.0%) along with a control (MS with 1% of sucrose). At 14 days after germination, the observations for adventitious root number and length (cm), shoot length (cm) and germination rate (%) were recorded.

Oslrk9 = assay: RT-PCR of Oslrks in treated 2 week-old seedlings; details: treated vs control
Method: as §1, §2

[3] = system: Oslrk1 mutant seeds and seedlings; assay: Germination and growth of Oslrk1 mutant seeds in galactose/mannose containing media
From the text: as §4, §5, §6

Oslrk15 = assay: RT-PCR of Oslrks in treated 2 week-old seedlings; details: treated vs control
Method: as §1, §2

| Compound | Oslrk2 expression by RT-PCR, Rt (Oslrk2) | Oslrk2 expression by RT-PCR, Sh (Oslrk2) | Oslrk4 expression by RT-PCR, Rt (Oslrk4) | Oslrk4 expression by RT-PCR, Sh (Oslrk4) | Oslrk8 expression by RT-PCR, Sh (Oslrk8) | Oslrk5 expression by RT-PCR, Rt (Oslrk5) | Oslrk5 expression by RT-PCR, Sh (Oslrk5) | Oslrk14 expression by RT-PCR, Sh (Oslrk14) | Oslrk10 expression by RT-PCR, Rt (Oslrk10) | Oslrk11 expression by RT-PCR, Sh (Oslrk11) | effect on Oslrk1 transcription (Oslrk1 gene [1]) | further results |
| --- | --- | --- | --- | --- | --- | --- | --- | --- | --- | --- | --- | --- |
| CC1=CC(=O)CC(C)(C)[C@@]1(O)/C=C/C(C)=C\C(=O)O [ABA, Abscisic acid] | I | I | I | I | I | I | I | I | R | I | no significant effect | Oslrk6 expression by RT-PCR, Sh (Oslrk6): R; Oslrk12 expression by RT-PCR, Sh (Oslrk12): I; Oslrk1 expression by RT-PCR, Sh (Oslrk1): R |
| O=C[C@H](O)[C@@H](O)[C@@H](O)[C@H](O)CO [Gal, galactose] | I | R | – | I | I | I | I | I | – | R | – | Oslrk1 expression in response to sugars (Oslrk1 gene [2]): Repression; length of adventitious roots (WT seeds and seedlings; 1.0% Gal): reduced; number of the adventitious roots (WT seeds and seedlings; 1.0% Gal): more or less same; shoot length decreased by (WT seeds and seedlings; 1.0% Gal): 15%; germination rate (WT seeds and seedlings; Gal (1.0%)): 85%; Oslrk10 expression by RT-PCR, Sh (Oslrk10; Sh): I; Oslrk9 expression by RT-PCR, Sh (Oslrk9): I; Oslrk11 expression by RT-PCR, Rt (Oslrk11; Rt): I; length of adventitious roots ([3]; Oslrk1 mutant, 1.0% Gal): severe reduction; number of the adventitious roots reduced by ([3]; Oslrk1 mutant, 1.0% Gal): 85%; shoot length decreased by ([3]; Oslrk1 mutant, 1.0% Gal): half; germination rate ([3]; Oslrk1 mutant, Gal (1.0%)): 30%; behavior of the mutant compared with the WT upon treatment ([3]; sugar 0.1% to 1% along with Suc): differential response |
| O=C(O)Cc1c[nH]c2ccccc12 [IAA, Indole 3-Acetic Acid] | – | – | I | – | – | I | – | – | I | – | no significant effect | Oslrk8 expression by RT-PCR, Rt (Oslrk8; Rt): I; Oslrk15 expression by RT-PCR, Rt (Oslrk15): I |
